Assay results from patent publication US7683179B2, “Lercanidipine salts” (Recordati Ireland Limited, priority 2004, dated 2010).
Entries after “also recorded” stand apart in the source; their conditions may differ. Structures can show the parent of a compound that is named as a salt. Where two headings read alike, the source gives them in different places.

Legend:
Assay type in all cases: physicochemical
[1] = Solubility by UV-Visible spectroscopy in aqueous 0.1 M HCl (pH 1) at 22° C.; details: for solubility at 24 h: 22 °C, pH 1, simulated gastric fluid, thermodynamic from solid; for solubility: pH 1
Description: The solubility of crystalline lercanidipine besylate, napadisylate and hydrochloride and amorphous lercanidipine besylate was evaluated by UV-Visible spectroscopy in aqueous 0.1 M HCl (pH 1) at 22° C. Suspensions of approximately 0.3 mg/ml of the respective compounds were prepared in an aqueous 0.1 M HCl and equilibrated by shaking for 24 hours. Following equilibration, the samples were filtered (0.1 μm filter) and the concentration was determined photometrically using Perkin Elmer Lambda 16 (Überlingen, Germany). Reference measurements were performed with 20% acetonitrile as a co-solvent.

[2] = Stability of crystalline salts (statement, no method)
[3] = Hygroscopicity by DVS analysis (water absorption analyzer); details: humidity cycling between 0 and 95% RH at 25° C.
Description: The hygroscopicity of both amorphous and crystalline lercanidipine salts was determined by DVS analysis using a water absorption analyzer (Surface Measurement System Ltd., Marion, Buckinghamshire, UK). The analysis were carried out according to the following conditions: 10-15 mg of sample were placed on a quartz or platinum holder, the holder was placed in-turn on a microbalance, and the sample underwent humidity cycling between 0 and 95% relative humidity (RH) at 25° C. (50-95-0-95-0-50% at a rate of 5% RH/hr).

Row | solubility at 24 h ([1]; Solubility) [µg/mL] | solubility at 24 h ([1]; solubility in 0.1 N HCl) [µg/mL] | solubility compared with other salt forms [1] | solubility in 0.1 M HCl at 22° C. [1] | solubility [1] [µg/mL] | stability [2] | Hygroscopicity [3] | solubility in 0.1 M HCl at 22° C. ([1]; 0.1 M HCl, 22° C.) | Molecule | solubility compared with other salt forms ([1]; 0.1 M / 0.1 N HCl, comparison in words)
1 | 10 | ~10 | – | – | – | – | – | – | COC(=O)C1=C(C)NC(C)=C(C(=O)OC(C)(C)CN(C)CCC(c2ccccc2)c2ccccc2)C1c1cccc([N+](=O)[O-])c1 (stereo not shown) [Crystalline hydrochloride, lercanidipine hydrochloride, reference compound] | –
2 | – | – | lower solubility than the amorphous salt | about 3.5 mg/L | 3.5 | good stability | hygroscopic | – | COC(=O)C1=C(C)NC(C)=C(C(=O)OC(C)(C)CN(C)CCC(c2ccccc2)c2ccccc2)C1c1cccc([N+](=O)[O-])c1.COC(=O)C1=C(C)NC(C)=C(C(=O)OC(C)(C)CN(C)CCC(c2ccccc2)c2ccccc2)C1c1cccc([N+](=O)[O-])c1.O=S(=O)(O)c1cccc2c(S(=O)(=O)O)cccc12 (stereo not shown) [Crystalline napadisylate, lercanidipine napadisylate] | –
3 | – | – | – | – | – | good stability | non-hygroscopic | about 87 mg/L | lercanidipine besylate [Crystalline besylate] | lower solubility than the amorphous salt; also recorded: substantially more soluble than either crystalline hydrochloride or napadisylate
4 | – | – | – | – | 155 | – | non-hygroscopic | – | lercanidipine besylate [Amorphous besylate] | –
